Source: patent publication US20120165319A1, “INHIBITORS OF INTERLEUKIN-1 BETA CONVERTING ENZYME” (VERTEX PHARMACEUTICALS INCORPORATED, priority 1995, published 2012)
Like-named read-outs stand apart in the source and are kept apart here.

Columns and labels:
[1] = test system: IL-1β production, LPS-challenged mice; assay: In vivo acute assay for efficacy as anti-inflammatory agent: LPS-induced IL-1β production in mice; design: species or system mouse; conditions: LPS challenged mice, compound PO, 50 mg/kg; for inhibition at 50 mg/kg: Mus musculus, po, read-out: percent inhibition of IL-1β production
Procedure: In Vivo Acute Assay for Efficacy as Anti-Inflammatory Agent
LPS-Induced IL-1β Production.
Efficacy of 214e and 217e was evaluated in CD1 mice (n=6 per condition) challenged with LPS (20 mg/kg IP). […] Blood was collected seven hours after LPS challenge. Serum IL-1β levels were measure by ELISA. […] Similar results were obtained in a second experiment. […] However, a clear dose response was not apparent.
Compounds 214e and 217e (50 mg/kg) were also administered by oral gavage to assess absorption.
The efficacy of analogs of 214e were also evaluated in LPS challenged mice after IP administration (FIG. 9) and PO administration (FIG. 10).
[…] The protocol is described in Example 7.

[2] = test system: IL-1β, human whole blood; assay: Whole blood assay for IL-1β production; assay type: cell-based; conditions: Table 17, read-out: Whole human blood IC50
Method in brief: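 Human whole blood collected on Na2EDTA was treated with serially diluted compound in saline and then stimulated with LPS at 5.0 ng/ml final, for 16-18 h at 30 °C, in duplicate or triplicate. Plasma IL-1β was measured by ELISA at 1:200 dilution.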

[3] = 0 h, administered 0 h relative to time of LPS challenge
[4] = 2 h, administered −2 h relative to time of LPS challenge
[5] = administered 0 h relative to time of LPS challenge
[6] = administered −2 h relative to time of LPS challenge

SMILES | inhibition at 50 mg/kg [1, 3] | inhibition at 50 mg/kg [1, 4] | IC50 ([2]; Homo sapiens) | percent inhibition of IL-1β production [1, 5] | percent inhibition of IL-1β production [1, 6] | IC50 [2]
O=C1C[C@H](NC(=O)[C@@H]2CCCN3C(=O)CC[C@H](NC(=O)c4cc(Cl)c(O)c(Cl)c4)C(=O)N23)C(OCc2ccccc2)O1 (stereo partly drawn) [Compound 213k, [1S,9S(2RS,3S)]9-[(3,5-Dichloro-4-hydroxybenzoyl)amino]-6,10-dioxo-1,2,3,4,7,8,9,10-octahydro-N-(2-Benzyloxy-5-oxotetrahydrofuran-3-yl)-6H-pyridazino[1,2-a][1,2]diazepine-1-carboxamide] | 68% | 0% | 2000 nM |  |  | 
CCOC1OC(=O)C[C@@H]1NC(=O)[C@@H]1CCCN2C(=O)CC[C@H](NC(=O)c3ccc(NC(C)=O)c(Cl)c3)C(=O)N12 (stereo partly drawn) [Compound 550l, [1S,9S (2RS,3S)]9-[(3-Chloro-4-acetamidobenzoyl)amino]-6,10-dioxo-1,2,3,4,7,8,9,10-octahydro-N-(2-ethoxy-5-oxotetrahydrofuran-3-yl)-6H-pyridazino[1,2-a][1,2]diazepine-1-carboxamide] | 38% | 9% | 750 nM |  |  | 
O=C1C[C@H](NC(=O)[C@@H]2CCCN3C(=O)CCN(NC(=O)c4ccc5c(c4)OCO5)C(=O)N23)C(OCc2ccccc2)O1 (stereo partly drawn) [Compound 264l, [4S(2RS,3S)]N-(2-Benzyloxy-5-oxotetrahydrofuran-3-yl)-6,10-dioxo-7-(3,4-methylenedioxybenzoylamino)-1,2,3,4,7,8,9,10-octahydro-6H-pyridazino[1,2-a][1,2,4]triazepine-4-carboxamide] | 23% | 0% | 3000 nM |  |  | 
CCOC1OC(=O)C[C@@H]1NC(=O)[C@@H]1CCCN2C(=O)CC[C@H](NC(=O)c3ccc(N)c(Cl)c3)C(=O)N12 (stereo partly drawn) [Compound 550h, [1S,9S(2RS,3S)]9-[(3-Chloro-4-aminobenzoyl)amino]-6,10-dioxo-1,2,3,4,7,8,9,10-octahydro-N-(2-ethoxy-5-oxotetrahydrofuran-3-yl)-6H-pyridazino[1,2-a][1,2]diazepine-1-carboxamide] | 73% | 55% | 1800 nM |  |  | 
CCOC1OC(=O)C[C@@H]1NC(=O)[C@@H]1CCCN2C(=O)CCN(NC(=O)c3ccc4c(c3)OCO4)C(=O)N12 (stereo partly drawn) [Compound 528, [4S(2RS,3S)]6,10-Dioxo-N-(2-ethoxy-5-oxotetrahydrofuran-3-yl)-7-(3,4-methylenedioxybenzoylamino)-1,2,3,4,7,8,9,10-octahydro-6H-pyridazino[1,2-a][1,2,4]triazepine-4-carboxamide] | 67% | 25% | 2200 nM |  |  | 
CC(=O)OC1OC(=O)CC1NC(=O)[C@@H]1CCCN2C(=O)CC[C@H](NC(=O)c3ccccc3)C(=O)N12 (mixture of isomers) [Compound 2100h, [1S,9S(2RS,3RS)]9-Benzoylamino-6,10-dioxo-1,2,3,4,7,8,9,10-octahydro-N-(2-acetoxy-5-oxotetrahydrofuran-3-yl)-6H-pyridazino[1,2-a][1,2]diazepine-1-carboxamide] | 32% | 34% | 2000 nM |  |  | 
Nc1ccc(C(=O)N[C@H]2CCC(=O)N3CCC[C@@H](C(=O)N[C@H]4CC(=O)OC4OCc4ccccc4)N3C2=O)cc1Cl (mixture of isomers) [Compound 213h, [1S,9S (2RS,3S)]9-[(3-Chloro-4-aminobenzoyl)amino]-6,10-dioxo-1,2,3,4,7,8,9,10-octahydro-N-(2-Benzyloxy-5-oxotetrahydrofuran-3-yl)-6H-pyridazino[1,2-a][1,2]diazepine-1-carboxamide] |  |  |  | 53% | 9% | 1500 nM
CCOC1OC(=O)C[C@@H]1NC(=O)[C@@H]1CCCN2C(=O)CC[C@H](NC(=O)c3ccc(O)cc3)C(=O)N12 (stereo partly drawn) [Compound 550p, [1S,9S(2RS,3S)]6,10-Dioxo-N-(2-ethoxy-5-oxotetrahydrofuran-3-yl)-9-(4-hydroxybenzoyl)amino-1,2,3,4,7,8,9,10-octahydro-6H-pyridazino[1,2-a][1,2]diazepine-1-carboxamide] | 60% | 30% | 2900 nM |  |  | 
O=C1C[C@H](NC(=O)[C@@H]2CCCN3C(=O)CC[C@H](NC(=O)c4cc5ccccc5[nH]4)C(=O)N23)C(OCc2ccccc2)O1 (mixture of isomers) [Compound 213q, [1S,9S(2RS,3S)]N-(2-Benzyloxy-5-oxotetrahydrofuran-3-yl)-6,10-dioxo-9-(indol-2-oylamino)-1,2,3,4,7,8,9,10-octahydro-6H-pyridazino[1,2-a][1,2]diazepine-1-carboxamide] |  |  |  | 91% | 17% | < 300 nM
O=C1C[C@H](NC(=O)[C@@H]2CCCN3C(=O)CC[C@H](NC(=O)c4nccc5ccccc45)C(=O)N23)C(OCc2ccccc2)O1 (mixture of isomers) [Compound 213y, [1S,9S(2RS,3S)]N-(2-Benzyloxy-5-oxotetrahydrofuran-3-yl)-6,10-dioxo-9-(isoquinolin-1-oylamino)-1,2,3,4,7,8,9,10-octahydro-6-H-pyridazino[1,2-a][1,2]diazepine-1-carboxamide] |  |  |  | 50% | 29% | 930 nM
CC(=O)Nc1ccc(C(=O)N[C@H]2CCC(=O)N3CCC[C@@H](C(=O)N[C@H]4CC(=O)OC4OCc4ccccc4)N3C2=O)cc1Cl (stereo partly drawn) [Compound 213l, [1S,9S(2RS,3S)]9-[(3-Chloro-4-acetamidobenzoyl)amino]-6,10-dioxo-1,2,3,4,7,8,9,10-octahydro-N-(2-Benzyloxy-5-oxotetrahydrofuran-3-yl)-6H -pyridazino[1,2-a][1,2]diazepine-1-carboxamide] | 80% | -18% | 2000 nM |  |  | 
CCOC1OC(=O)C[C@@H]1NC(=O)[C@@H]1CCCN2C(=O)CC[C@H](NC(=O)c3ccc(N(C)C)cc3)C(=O)N12 (stereo partly drawn) [Compound 550f, [1S,9S(2RS,3S)]9-[(4-Dimethylaminobenzoyl)amino]-6,10-dioxo-1,2,3,4,7,8,9,10-octahydro-N-(2-ethoxy-5-oxotetrahydrofuran-3-yl)-6H-pyridazino[1,2-a][1,2]diazepine-1-carboxamide] | 50% | 0% | 1100 nM |  |  | 
